Experimental data as given in ChEMBL document CHEMBL5465560, “Selectivity Literature for EUbOPEN Chemogenomic Library” (2024).
Each block holds one compound with its values, some of them ahead of it.

Tests used:
[1] = target: SRSF protein kinase 3 (Homo sapiens) (UniProt Q9UPE1); details: at 10 µM
[2] = target: T1, Mitogen-activated protein kinase kinase kinase 6 (Homo sapiens) (UniProt O95382); assay: Selectivity interaction (KinomeScan (DiscoverX)) EUB0001049a MAP3K6; details: at 1 µM
T1 sequence (whole entry): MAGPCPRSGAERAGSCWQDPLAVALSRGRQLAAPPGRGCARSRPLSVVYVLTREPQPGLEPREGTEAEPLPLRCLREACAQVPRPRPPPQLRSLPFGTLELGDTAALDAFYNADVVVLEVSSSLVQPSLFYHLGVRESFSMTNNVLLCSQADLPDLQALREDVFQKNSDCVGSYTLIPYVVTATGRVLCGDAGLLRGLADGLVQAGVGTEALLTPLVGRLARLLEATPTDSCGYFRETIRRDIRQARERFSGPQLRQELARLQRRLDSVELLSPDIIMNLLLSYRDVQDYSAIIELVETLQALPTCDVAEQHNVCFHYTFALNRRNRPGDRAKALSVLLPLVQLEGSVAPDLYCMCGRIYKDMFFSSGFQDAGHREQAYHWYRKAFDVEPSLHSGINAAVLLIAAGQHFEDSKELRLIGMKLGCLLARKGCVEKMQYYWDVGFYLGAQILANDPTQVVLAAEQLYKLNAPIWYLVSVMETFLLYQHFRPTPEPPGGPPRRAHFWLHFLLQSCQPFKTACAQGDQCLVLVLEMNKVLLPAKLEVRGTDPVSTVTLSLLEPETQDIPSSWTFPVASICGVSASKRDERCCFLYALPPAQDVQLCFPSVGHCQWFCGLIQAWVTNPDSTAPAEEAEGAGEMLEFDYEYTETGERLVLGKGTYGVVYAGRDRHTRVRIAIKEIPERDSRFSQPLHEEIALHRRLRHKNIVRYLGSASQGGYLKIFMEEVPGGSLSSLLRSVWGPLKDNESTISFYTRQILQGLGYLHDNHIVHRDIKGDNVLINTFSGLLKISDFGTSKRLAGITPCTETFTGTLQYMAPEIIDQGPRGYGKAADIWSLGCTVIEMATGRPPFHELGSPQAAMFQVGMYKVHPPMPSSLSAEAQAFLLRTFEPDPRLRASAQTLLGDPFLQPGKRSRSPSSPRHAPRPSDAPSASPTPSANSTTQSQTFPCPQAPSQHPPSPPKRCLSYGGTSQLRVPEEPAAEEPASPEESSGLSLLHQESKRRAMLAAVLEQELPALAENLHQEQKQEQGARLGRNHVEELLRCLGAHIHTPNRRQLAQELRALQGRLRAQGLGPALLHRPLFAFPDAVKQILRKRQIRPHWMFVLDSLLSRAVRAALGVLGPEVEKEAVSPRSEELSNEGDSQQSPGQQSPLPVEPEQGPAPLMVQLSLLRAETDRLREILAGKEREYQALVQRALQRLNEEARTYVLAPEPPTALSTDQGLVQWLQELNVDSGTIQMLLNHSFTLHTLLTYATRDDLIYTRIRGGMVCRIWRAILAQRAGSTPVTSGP

[3] = target: T2, Scaffold protein ILK (Homo sapiens) (UniProt Q13418); assay: Selectivity interaction (ActivX KiNativ screen (kinase selectivity in THP-1 cell lysates)) EUB0000639a ILK; assay type: subcellular; details: lysate, at 0.04 µM
T2 sequence (whole entry): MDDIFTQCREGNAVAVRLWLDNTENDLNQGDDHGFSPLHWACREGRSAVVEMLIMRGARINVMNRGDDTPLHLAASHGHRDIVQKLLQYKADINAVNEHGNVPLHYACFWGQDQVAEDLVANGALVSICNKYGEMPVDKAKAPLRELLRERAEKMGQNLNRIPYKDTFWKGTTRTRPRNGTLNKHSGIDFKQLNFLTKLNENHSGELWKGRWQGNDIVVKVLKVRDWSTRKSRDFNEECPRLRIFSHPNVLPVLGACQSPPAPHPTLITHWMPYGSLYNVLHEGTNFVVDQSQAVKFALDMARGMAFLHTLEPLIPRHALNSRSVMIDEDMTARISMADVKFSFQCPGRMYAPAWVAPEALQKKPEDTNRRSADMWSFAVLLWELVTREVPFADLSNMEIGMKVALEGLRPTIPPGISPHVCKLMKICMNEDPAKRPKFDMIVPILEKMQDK

[4] = target: T3, Serine/threonine-protein kinase TAO2 (Homo sapiens) (UniProt Q9UL54); assay: Selectivity interaction (KinomeScan (DiscoverX)) EUB0000595a TAOK2; details: at 10 µM
T3 sequence (whole entry): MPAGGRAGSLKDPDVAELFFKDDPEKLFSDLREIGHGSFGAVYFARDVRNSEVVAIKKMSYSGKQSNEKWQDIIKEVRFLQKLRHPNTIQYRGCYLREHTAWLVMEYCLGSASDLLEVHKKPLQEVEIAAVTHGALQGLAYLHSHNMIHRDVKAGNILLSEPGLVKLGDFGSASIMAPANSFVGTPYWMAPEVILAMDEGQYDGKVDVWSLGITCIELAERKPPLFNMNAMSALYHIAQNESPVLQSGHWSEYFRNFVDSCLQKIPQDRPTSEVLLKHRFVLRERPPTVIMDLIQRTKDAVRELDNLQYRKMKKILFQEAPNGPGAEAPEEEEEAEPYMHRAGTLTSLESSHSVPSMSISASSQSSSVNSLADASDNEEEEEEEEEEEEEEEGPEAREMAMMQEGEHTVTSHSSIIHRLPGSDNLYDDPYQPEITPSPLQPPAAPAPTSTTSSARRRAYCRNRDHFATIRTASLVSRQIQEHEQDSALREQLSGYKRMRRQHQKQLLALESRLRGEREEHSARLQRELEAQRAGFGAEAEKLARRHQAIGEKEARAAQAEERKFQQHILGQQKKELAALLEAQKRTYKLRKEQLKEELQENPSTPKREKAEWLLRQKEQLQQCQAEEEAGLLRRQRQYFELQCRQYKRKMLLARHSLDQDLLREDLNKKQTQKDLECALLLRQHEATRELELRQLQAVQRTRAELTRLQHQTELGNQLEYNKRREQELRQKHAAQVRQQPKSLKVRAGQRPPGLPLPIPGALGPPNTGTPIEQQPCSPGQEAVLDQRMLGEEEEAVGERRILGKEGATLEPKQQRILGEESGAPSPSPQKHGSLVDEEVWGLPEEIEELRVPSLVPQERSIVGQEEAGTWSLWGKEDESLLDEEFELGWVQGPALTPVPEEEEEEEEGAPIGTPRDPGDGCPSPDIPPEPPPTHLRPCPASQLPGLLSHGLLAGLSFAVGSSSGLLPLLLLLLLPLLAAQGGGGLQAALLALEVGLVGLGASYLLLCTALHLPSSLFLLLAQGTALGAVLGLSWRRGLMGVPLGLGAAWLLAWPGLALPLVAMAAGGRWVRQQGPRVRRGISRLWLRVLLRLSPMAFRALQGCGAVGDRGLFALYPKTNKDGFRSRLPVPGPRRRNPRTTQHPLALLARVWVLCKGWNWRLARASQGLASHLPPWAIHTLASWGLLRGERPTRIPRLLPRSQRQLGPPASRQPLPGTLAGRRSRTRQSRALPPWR

Sequence of SRSF protein kinase 3 (Homo sapiens) (Q9UPE1 whole entry): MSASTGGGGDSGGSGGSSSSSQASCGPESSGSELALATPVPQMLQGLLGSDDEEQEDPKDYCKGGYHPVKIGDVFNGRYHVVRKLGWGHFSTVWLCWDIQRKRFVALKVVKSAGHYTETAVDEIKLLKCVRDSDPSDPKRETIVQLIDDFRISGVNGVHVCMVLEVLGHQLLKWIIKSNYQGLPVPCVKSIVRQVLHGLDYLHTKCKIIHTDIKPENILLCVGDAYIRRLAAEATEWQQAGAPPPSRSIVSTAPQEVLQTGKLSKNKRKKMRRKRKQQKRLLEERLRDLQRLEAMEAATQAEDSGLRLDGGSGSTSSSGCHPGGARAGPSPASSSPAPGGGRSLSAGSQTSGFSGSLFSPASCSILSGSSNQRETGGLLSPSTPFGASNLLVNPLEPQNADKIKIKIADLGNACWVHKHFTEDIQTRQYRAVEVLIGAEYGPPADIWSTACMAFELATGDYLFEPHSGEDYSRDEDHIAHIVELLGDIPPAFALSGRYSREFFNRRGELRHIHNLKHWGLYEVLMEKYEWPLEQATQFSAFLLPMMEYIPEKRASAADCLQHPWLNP

SMILES: Cc1cc([C@@H](C)Nc2ccccc2C(=O)O)c2nc(N3CCOCC3)cc(=O)n2c1 [AZD-6482]
% of control [1]: 100%

SMILES: COc1cc(Nc2nc(C)cc(-c3cnn4nc(OC)ccc34)n2)cc(C(F)(F)F)c1
% of control [2]: 66%

% of inhibition [3]: -18.4%
SMILES: CC[C@@H]1[C@H](F)C(=O)N[C@@H]1COc1nccc2cc(C(N)=O)c(OC)cc12 [ZIMLOVISERTIB]

SMILES: COCC(=O)NC/C=C/c1ccc2ncnc(Nc3ccc(Oc4ccc(C)nc4)c(C)c3)c2c1 [CP-724714]
% of control [4]: 100%
